Laboratory results taken from US20220388962A1 (Biohaven Therapeutics Ltd., priority 2019, published 2022).
Where a name gives a salt, the structure may show the parent alone.

target: TDP-43 (Homo sapiens, UniProt Q13148); test: TDP-43-DNA alpha-screen assay (bt-TAR-32 displacement); format: binding; settings: bt-TAR-32 0.125 nM, 15 ng/ml TDP-43
Procedure: Alpha-screen assay: Displacement of bt-TG6 binding was measured using AlphaScreen technology as previously described (Cassel, J. A. et al., Journal of Biomolecular Screening, 2010, 15, 1099-1106; Cassel, J. A.; Reitz, A. B. et al. The effects of small molecule inhibitors of nucleic acid binding to TDP-43 on TDP-43 metabolism and function. Biochimie, 2012, 94, 1974-1981).
Test compounds were diluted in assay buffer (25 mM Tris [pH 7.4], 0.1% bovine serum albumin [BSA], 0.1% Triton X-100) at 4× the desired final concentration. Dilutions of test compound (50 to 0.02 μM in half-log dilutions with a no compound control well) were pre-incubated with TDP-43 (5 μl of 60 ng/mL) pre-bound to AlphaScreen® anti-GST acceptor beads (5 μl of 40 μg/mL) in 15 μl volume for 30 minutes at 23° C. with shaking. Assays were initiated by the addition of 5 μl bt-TAR-32 (5′-CTGCTTTTTGCCTGTACTGGGTCTCTGTGGTT-3′) 0.5 nM pre-bound to AlphaScreen® strepavidin donor beads (40 μg/mL). After incubation in the dark at 23° C. for 90 minutes with shaking, the AlphaScreen® signal was measured on a Synergy 2 plate reader (BioTek, Winooski, Vt.). IC50 values were determined from nonlinear regression fits of the data to a Sigmoidal dose response variable slope model in GraphPad Prism. Final assay conditions are 25 mM Tris [pH 7.4], 0.1% bovine serum albumin [BSA], 0.100 Triton X-100, 15 ng/ml TDP-43, 0.125 nM bTAR32, 10 ug/ml […].

Chain of TDP-43 (Q13148 whole entry): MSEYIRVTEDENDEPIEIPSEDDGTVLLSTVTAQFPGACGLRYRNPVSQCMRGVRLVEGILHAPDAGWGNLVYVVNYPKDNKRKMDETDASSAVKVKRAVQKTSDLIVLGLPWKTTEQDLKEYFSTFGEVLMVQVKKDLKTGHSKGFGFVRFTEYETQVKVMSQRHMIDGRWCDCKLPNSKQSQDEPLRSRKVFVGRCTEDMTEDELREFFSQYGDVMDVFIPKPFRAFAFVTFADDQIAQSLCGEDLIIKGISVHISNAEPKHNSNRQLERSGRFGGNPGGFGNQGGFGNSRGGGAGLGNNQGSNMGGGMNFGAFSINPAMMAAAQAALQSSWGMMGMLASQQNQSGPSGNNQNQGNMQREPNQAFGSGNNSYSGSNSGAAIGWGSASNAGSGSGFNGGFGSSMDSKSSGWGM

Compound	IC50
COc1ccc(-c2cc(NCCCNCCCNc3ccncc3)c3ccccc3n2)cc1 [Example 63, N^1-(2-(4-methoxyphenyl)quinolin-4-yl)-N^3-(3-(pyridin-4-ylamino)propyl)propane-1,3-diamine dihydrochloride]	100 nM
COc1ccc(-c2cc(NC3CCN(CCCN4C(=O)c5ccccc5C4=O)CC3)c3ccccc3n2)cc1 [Example 64, 2-(3-(4-((2-(4-Methoxyphenyl)quinolin-4-yl)amino)piperidin-1-yl)propyl) isoindoline-1,3-dione dihydrochloride]	3600 nM
COc1ccc(-c2cc(NCC3CCCN(CCCN4C(=O)c5ccccc5C4=O)C3)c3ccccc3n2)cc1 (stereo not drawn) [Example 65, 2-(3-(3-(((2-(4-Methoxyphenyl)quinolin-4-yl)amino)methyl)piperidin-1-yl)propyl)isoindoline-1,3-dione]	730 nM
COc1ccc(-c2cc(NCCCNCCCNS(C)(=O)=O)c3ccccc3n2)cc1 [Example 66, N-(3-((3-((2-(4-Methoxyphenyl)quinolin-4-yl)amino)propyl)amino)propyl) methanesulfonamide hydrochloride]	1410 nM
COc1ccc(-c2cc(NCCC3CCCCN3CCCN3C(=O)c4ccccc4C3=O)c3ccccc3n2)cc1 (stereo not drawn) [Example 67, 2-(3-(2-(2-((2-(4-Methoxyphenyl)quinolin-4-yl)amino)ethyl)piperidin-1-yl)propyl) isoindoline-1,3-dione]	290 nM
COc1ccc(-c2cc(NCCCN3CCN4CCCC4C3)c3ccccc3n2)cc1 (stereo not drawn) [Example 68, N-(3-(Hexahydropyrrolo[1,2-a]pyrazin-2(1H)-yl)propyl)-2-(4-methoxyphenyl)quinolin-4-amine dihydrochloride]	2160 nM
COc1ccc(-c2cc(NC3CCN(C4CCN(C)CC4)CC3)c3ccccc3n2)cc1 [Example 69, 2-(4-Methoxyphenyl)-N-(1′-methyl-[1,4′-bipiperidine]-4-yl)quinolin-4-amine]	470 nM
COc1ccc(-c2cc(NCCCNC3CCC4CN(Cc5ccccc5)CC43)c3ccccc3n2)cc1 (stereo not drawn) [Example 70, N^1-(2-Benzyloctahydrocyclopenta[c]pyrrol-4-yl)-N^3-(2-(4-methoxyphenyl)quinolin-4-yl)propane-1,3-diamine trihydrochloride]	170 nM
COc1ccc(-c2cc(NCCCNCC3CCN(CC4CC4)CC3)c3ccccc3n2)cc1 [Example 71, N^1-((1-(Cyclopropylmethyl)piperidin-4-yl)methyl)-N^3-(2-(4-methoxyphenyl)quinolin-4-yl)propane-1,3-diamine trihydrochloride]	100 nM
COc1ccc(-c2cc(NCCCN3CCC(C(N)=O)CC3)c3ccccc3n2)cc1 [Example 72, 1-(3-((2-(4-Methoxyphenyl)quinolin-4-yl)amino)propyl)piperidine-4-carboxamide dihydrochloride]	930 nM
COc1ccc(-c2cc(NCCCN3CCN(C)CC3)c3ccccc3n2)cc1 [Example 73, 2-(4-Methoxyphenyl)-N-(3-(4-methylpiperazin-1-yl)propyl)quinolin-4-amine]	1710 nM
COc1ccc(-c2cc(NCCN3CCN(C)CC3)c3ccccc3n2)cc1 [Example 74, 2-(4-Methoxyphenyl)-N-(2-(4-methylpiperazin-1-yl)ethyl)quinolin-4-amine]	1850 nM
COc1ccc(-c2cc(NCCCN3CCC(O)CC3)c3ccccc3n2)cc1 [Example 75, 1-(3-((2-(4-Methoxyphenyl)quinolin-4-yl)amino)propyl)piperidin-4-ol]	590 nM
COc1ccc(-c2cc(NCCCN3CCOCC3)c3ccccc3n2)cc1 [Example 76, 2-(4-Methoxyphenyl)-N-(3-morpholinopropyl)quinolin-4-amine]	6280 nM
COc1ccc(-c2cc(NCCCN(C)CCCNC(=O)Cc3c(C)c4ccc(N)cc4oc3=O)c3ccccc3n2)cc1 [Example 77, 2-(7-Amino-4-methyl-2-oxo-2H-chromen-3-yl)-N-(3-((3-((2-(4-methoxyphenyl)quinolin-4-yl)amino)propyl)(methyl)amino)propyl)acetamide trihydrochloride]	250 nM
COc1ccc(-c2cc(NCCCN(C)CCCNS(=O)(=O)c3cccc4c(N(C)C)cccc34)c3ccccc3n2)cc1 [Example 78, 5-(dimethylamino)-N-{3-[(3-{[2-(4-methoxyphenyl)quinolin-4 yl]amino}propyl)(methyl)amino]propyl}naphthalene-1-sulfonamide]	1260 nM
COc1cc2nc(-c3ccc(N4CCNCC4)cc3)cc(N[C@H]3C[C@@H](N)C3)c2cc1OC [Example 79]	20 nM
COc1cc2nc(-c3ccc(N4CCNCC4)cc3)cc(N[C@H]3C[C@H](N)C3)c2cc1OC [Example 80]	20 nM

Compound	IC50
COc1cc2nc(-c3ccc(N4CCNCC4)cc3)cc(N[C@H]3CC[C@H](N)CC3)c2cc1OC [Example 81, (1R,4R)—N^1-(6,7-dimethoxy-2-(4-(piperazin-1-yl)phenyl)quinolin-4-yl)cyclohexane-1,4-diamine]	30 nM
COc1cc2nc(-c3ccc(N4CCNCC4)cc3)cc(NCCCN)c2cc1OC [Example 82]	30 nM
N[C@H]1C[C@@H](Nc2cc(-c3ccc(N4CCNCC4)cc3)nc3ccccc23)C1 [Example 83]	30 nM
NCCCNc1cc(-c2ccc(-n3cc4c(n3)CNC4)cc2)nc2ccccc12 [Example 84, N^1-(2-(4-(5,6-dihydropyrrolo[3,4-c]pyrazol-2(4H)-yl)phenyl)quinolin-4-yl)propane-1,3-diamine]	40 nM
COc1cc2nc(-c3ccc(N4CCNCC4)cc3)cc(N[C@H]3CC[C@@H](N)CC3)c2cc1OC [Example 85]	40 nM
NCCCNc1cc(-c2ccc(N3CCNCC3)cc2)nc2ccccc12 [Example 86]	50 nM
COc1cc2nc(-c3ccc(N4CCNCC4)cc3)cc(NCCCN(C)C)c2cc1OC [Example 87, N-(3-(dimethylamino)propyl)-6,7-dimethoxy-2-(4-(piperazin-1-yl)phenyl)quinolin-4-amine]	50 nM
CN(CCCN)CCCNc1cc(-c2cccc(N3CCNCC3)c2)nc2ccccc12 [Example 88]	60 nM
COc1ccc(-c2cc(NC3CCC(N)CC3)c3cc(OC)c(OC)cc3n2)cc1 (stereo not drawn) [Example 89]	80 nM
NC1CCC(Nc2cc(-c3ccc(N4CCNCC4)cc3)nc3ccccc23)CC1 (stereo not drawn) [Example 90]	80 nM
CC(C)C(N)C(=O)N1CCN(c2ccc(-c3cc(NCCCN(C)C)c4ccccc4n3)cc2)CC1 (stereo not drawn) [Example 91, 2-amino-1-(4-(4-(4-((3-(dimethylamino)propyl)amino)quinolin-2-yl)phenyl)piperazin-1-yl)-3-methylbutan-1-one]	90 nM
CC(N)C(=O)N1CCN(c2ccc(-c3cc(NCCCN(C)C)c4ccccc4n3)cc2)CC1 (stereo not drawn) [Example 92]	90 nM
CN1CCC(n2cc(-c3cc(NCCCN)c4ccccc4n3)cn2)CC1 [Example 93]	90 nM
COc1ccc(-c2cc(NCCCN(C)CCCN)c3cc(OC)c(OC)cc3n2)cc1 [Example 94]	100 nM
NCCCNc1cc(-c2ccc(C3CCNCC3)cc2)nc2ccccc12 [Example 95]	110 nM
NCCCNc1cc(-c2cnn(C3CCNCC3)c2)nc2ccccc12 [Example 96]	120 nM
COc1ccc(-c2cc(N[C@H]3C[C@H](N)C3)c3cc(OC)c(OC)cc3n2)cc1 [Example 97]	130 nM
CN(C)CCCNc1cc(-c2cccc(N3CCNCC3)c2)nc2ccccc12 [Example 98]	140 nM
